# Test results as given in patent US20210395327A1, “Growth Hormone-Releasing Hormone Antagonists and Uses Thereof” (United States Government As Represented By The Department …, priority 2019, published 2021).
# Non-standard residues stand in square brackets, D forms with d. Residues, ends and D or L forms follow the SMILES beside them. *: point of attachment. Phenylacetyl(2,3,4,5,6-F5) = O=C(Cc1c(F)c(F)c(F)c(F)c1F)*; Phe(F5) = N[C@@H](Cc1c(F)c(F)c(F)c(F)c1F)C(=O)O; Phe(4-Cl) = N[C@@H](Cc1ccc(Cl)cc1)C(=O)O; hArg = N=C(N)NCCCC[C@H](N)C(=O)O; 12Ado = NCCCCCCCCCCCC(=O)O; Nle = CCCC[C@H](N)C(=O)O; Abu = CC[C@H](N)C(=O)O
# Experiments:
# [1] = system: MX-1 breast cancer cells; assay: In vitro cell viability, MX-1; assay type: cell-based, human; settings: Table 3B; 5 μM for 72 H; MIA-602 = 1
# Procedure: (§1) The inhibitory effects of the various synthesized GHRH antagonists were tested in cell proliferation assays in various human cancer cell lines including stomach cancer (KATOIII, N87), colon cancer (HT-29), urothelial cancer (J82, RT4), pancreatic cancer (PANC-1, CFPAC-1), prostatic cancer (PC3), breast cancer (MX-1, HCC1806), ovarian cancer (SK-OV-3, OVCAR-3) and lung cancer (HCC827, H460).
# (§2) Cell culture. Human cancer cell lines including pancreatic (PANC-1 and CFPAC-1), lung (HCC827 and H460), stomach (NCI-N87 and KATOIII), urothelial (J82, RT4), prostatic (PC3), breast (MX-1 and HCC 1806), colorectal (HT-29), and ovarian (SK-OV-3 and OVCAR-3) were obtained from the American Type Culture Collection (ATCC) and cultured at 37° C. in a humidified 95% air/5% CO2 atmosphere in the medium recommended by ATCC.
# (§3) In vitro cell viability. Cell viability was analyzed as follows: cancer cells including pancreatic (PANC-1 and CFPAC-1), lung (HCC827 and H460), stomach (NCI-N87 and KATOIII), urothelial (J82, RT4), prostatic (PC3) and breast (MX-1 and HCC 1806), colorectal (HT-29) and ovarian (SK-OV-3 and OVCAR-3) were grown on 96 well plates to ˜60% confluence, the cells were starved for 24 h in culture medium containing 0.5% FBS. Cells were then treated with GHRH antagonists MIA602 AVR compounds at concentrations of 1, 2.5 or 5 μM, or vehicle (0.1% DMSO) in quintuplicates for 72 hours. The medium was replaced every 48 hours. Cell viability was measured using CellTiter 96 aqueous one solution kit (Promega). Inhibitory effects of tested AVR compounds in comparison to that of MIA602 are presented as inhibitory potency.
# (§4) Inhibitory effects of selected AVR compounds in comparison to that of MIA602 are presented as inhibitory potency (e.g., percentage of inhibition). […] The cell lines tested including lung cancer HCC827 (FIG. 2A), pancreatic cancer CFPAC-1 (FIG. 2B), stomach cancer N87 (FIG. 2C), colon cancer HT-29 (FIG. 2D), breast cancers MX-1 and HCC1806 (FIGS. 2 E, F). Based on the results of cell proliferation assay after cancer cells were treated with antagonist at concentration of 5 μM for 72H, the relative inhibitory potency of AVR antagonists in comparison to MIA-602 is summarized in Table 3 A and B. Over 60 AVR compounds were tested in 12 cancer cell lines.
# (§5) Based on the results of cell proliferation assay after cancer cells were treated with antagonist at concentration of 5 µM for 72H, * at concentration of 2 µM for 72 H.
# [2] = system: OVCAR-3 ovarian cancer cells; assay: In vitro cell viability, OVCAR-3; assay type: cell-based, human; settings: Table 3B; * at 2 μM for 72 H; MIA-602 = 1
# Procedure: as §1, §2, §3
# (§6) Inhibitory effects of selected AVR compounds in comparison to that of MIA602 are presented as inhibitory potency (e.g., percentage of inhibition). […] The cell lines tested including lung cancer HCC827 (FIG. 2A), pancreatic cancer CFPAC-1 (FIG. 2B), stomach cancer N87 (FIG. 2C), colon cancer HT-29 (FIG. 2D), breast cancers MX-1 and HCC1806 (FIGS. 2 E, F). […]
# [3] = system: pancreatic cancer CFPAC-1 xenograft; assay: Xenograft tumor growth in nude mice, CFPAC-1; assay type: in vivo; settings: Table 4I, Pancreatic Ca CFPAC-1, 7 weeks; for % Inhibition: vs control
# Procedure: (§7) The peptides' activity was compared with GHRH antagonist MIA-602. All statistical analyzses were performed from comparing GHRA antagonists to non-treated tumor (control).
# (§8) Peptides and chemicals. GHRH antagonists MIA-602 and AVR-GHRH antagonists (see Table 2 above) were synthesized by solid phase methods and purified by HPLC. The peptides were dissolved in DMSO and further diluted in 10% 1,2-propanediol. The final concentration of peptides was 50 µg/ml in 10% 1,2-propanediol containing 0.1% of DMSO.
# as §2, with “(NCI-N87), prostate” for “(NCI-N87 and KATOIII), urothelial (J82, RT4), prostatic”, “brest” for “breast”, “HCC-1806),” for “HCC 1806),”
# (§9) Xenograft models of human cancers in nude mice. Female athymic (NCr nu/nu) nude mice, 5- to 6-weeks-old, obtained from the Envigo labs (Tampa, Fla.), were housed in laminar airflow cabinets under pathogen-free conditions with a 12-h light/12-h dark schedule, and were fed autoclaved standard chow and water. To generate mice with xenografted tumors, tumor xenografts were initiated by subcutaneous (s.c.) injection of 107 human cancer cells into female nude mice. After about 4 weeks the resulting tumors were dissected and collected after removing necrosis tissues. The tumors were then cut into particles with size of 3 mm3 and transplanted s.c. by trocar needle into experimental animals. When tumors grew to the size of 50-60 mm3 (by volume), mice were randomized into groups and treated daily for 4-8 weeks by subcutaneous administration of 5 μg of GHRH antagonists MIA-602 or AVR-compounds (2-10 μg as indicated), or vehicle solutions (0.1% DMSO in 10% 1,2-propanediol) respectively. Tumor sizes were measured weekly.
# (§10) Statistical analysis. One-way ANOVA followed by Bonferroni comparison were performed. Data are expressed as Mean±SEM. To determine statistical significance between animal groups, two-tailed Student's t-test was conducted. Differences were considered significant when p<0.05.
# (§11) Results. […] FIG. 1A-N represents in vivo inhibition of tumor growth during the treatment with GHRH antagonist MIA-602 and selected AVR antagonists in nude mice xenografted with various human tumors including pancreatic cancer PANC-1 (FIG. 1A) and CFPAC-1 (FIG. 1I); lung cancer HCC827 (FIGS. 1B, C) and H460 (FIG. 1H); stomach cancer N87 (FIGS. 1D-F); colon cancer HT-29 (FIG. 1G); breast cancer MX-1 and HCC-1806 (FIGS. 1J, K); ovarian cancer SK-OV-3 and OVACAR-3 (FIGS. 1 L, M) and prostate cancer PC3 (FIG. 1N). See also Table 5.
# [4] = system: HCC1806 breast cancer cells; assay: In vitro cell viability, HCC1806; assay type: cell-based, human; settings: Table 3B; 5 μM for 72 H; MIA-602 = 1
# Procedure: as §1, §2, §3, §4, §5
# [5] = system: pancreatic cancer PANC-1 xenograft; assay: Xenograft tumor growth in nude mice, PANC-1; assay type: in vivo; settings: Table 4A, Pancreatic Ca PANC-1, 7 weeks; for % Inhibition: vs control
# Procedure: as §7, §8
# as §2, with “(NCI-N87), prostate” for “(NCI-N87 and KATOIII), urothelial (J82, RT4), prostatic”, “brest” for “breast”, “HCC-1806),” for “HCC 1806),”
# as §9, §10, §11
# [6] = system: prostate cancer PC3 xenograft; assay: Xenograft tumor growth in nude mice, PC3; assay type: in vivo; settings: Table 4N, Prostate Ca PC3, 8 weeks, 5 μg/day s.c.
# Procedure: as §7, §8
# as §2, with “(NCI-N87), prostate” for “(NCI-N87 and KATOIII), urothelial (J82, RT4), prostatic”, “brest” for “breast”, “HCC-1806),” for “HCC 1806),”
# as §9, §10, §11
# [7] = system: SK-OV-3 ovarian cancer cells; assay: In vitro cell viability, SK-OV-3; assay type: cell-based, human; settings: Table 3B; * at 2 μM for 72 H; MIA-602 = 1
# Procedure: as §1, §2, §3, §6
compound,measurement,setting,value
"CCCC[C@H](NC(=O)[C@@H](NC(=O)[C@H](CC(=O)O)NC(=O)[C@H](CCC(N)=O)NC(=O)[C@H](CC(C)C)NC(=O)[C@H](CC(C)C)NC(=O)[C@H](CCCCN)NC(=O)[C@H](CCCNC(=N)N)NC(=O)[C@H](C)NC(=O)[C@H](CO)NC(=O)[C@H](CC(C)C)NC(=O)[C@H](CCC(N)=O)NC(=O)[C@H](CC)NC(=O)[C@H](CC(C)C)NC(=O)[C@@H](NC(=O)[C@H](CCCCN)NC(=O)[C@H](CCCNC(=N)N)NC(=O)[C@H](Cc1c(F)c(F)c(F)c(F)c1F)NC(=O)[C@H](CCCCNC(=N)N)NC(=O)[C@H](C)NC(=O)[C@@H](NC(=O)[C@H](Cc1ccc(Cl)cc1)NC(=O)[C@@H](NC(=O)[C@H](C)NC(=O)[C@H](CC(=O)O)NC(=O)[C@@H](CCCNC(=N)N)NC(=O)[C@H](Cc1ccc(O)cc1)NC(=O)CCCCCCCCCCCNC(=O)Cc1c(F)c(F)c(F)c(F)c1F)[C@@H](C)CC)[C@@H](C)O)C(C)C)[C@@H](C)CC)C(=O)N[C@H](CCCNC(=N)N)C(=O)N[C@@H](CCCCNC(=N)N)C(=O)NCCCCCCCCCCCC(N)=O [AVR-353, 5FPhAC-Ada-Tyr-DArg-Asp-Ala-Ile-Cpa-Thr-Ala-Har-5FPhe-Arg-Lys-Val-Leu-Abu-Gln-Leu-Ser-Ala-Arg-Lys-Leu-Leu-Gln-Asp-Ile-Nle-DArg-Har-Ada-NH2] ({Phenylacetyl(2,3,4,5,6-F5)-12Ado}-Y[dR]DAI[Phe(4-Cl)]TA[hArg][Phe(F5)]RKVL[Abu]QLSARKLLQDI[Nle][dR][hArg][12Ado]-NH2)","In vitro relative inhibitory potency in comparison to MIA-602, MX-1",[1],2.001
same,"In vitro relative inhibitory potency in comparison to MIA-602, OVCAR-3",[2],1.55*
same,Tumor Growth %,[3]; 2.5 μg/day s.c.,1294.1%
same,% Inhibition,[3]; 2.5 μg/day s.c.,34.3%
same,Tumor Growth %,[3]; 5 μg/day s.c.,1077.6%
same,% Inhibition,[3]; 5 μg/day s.c.,46.2%
same,"In vitro relative inhibitory potency in comparison to MIA-602, HCC-1806",[4],9.396
same,Tumor Growth %,[5]; 2.5 μg/day s.c.,1482.8%
same,% Inhibition,[5]; 2.5 μg/day s.c.,44.5%
same,Tumor Growth %,[5]; 5 μg/day s.c.,1257.3%
same,% Inhibition,[5]; 5 μg/day s.c.,52.9%
same,Tumor Growth %,[5]; 10 μg/day s.c.,1005.1%
same,% Inhibition,[5]; 10 μg/day s.c.,62.4%
same,Tumor Size (mm3),[6],496.7 mm3
same,% Inhibition,[6]; vs control,39.9%
same,"In vitro relative inhibitory potency in comparison to MIA-602, SKOV-3",[7],1.04*
